What was measured:
barnyardgrass [1] = experiment: Test A preemergence; assay type: in vivo, Echinochloa crus-galli; conditions: preemergence; for Barnyardgrass plant response rating (0 to 100 scale, 0 is no effect, 100 is complete control): 125 g ai/ha, visual injury approx. 10 days after treatment; for Barnyardgrass plant response rating: 500 g ai/ha, visual injury after approx. 10 days, 0 to 100 scale (0 no effect, 100 complete control)
In short: (§1)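 Scoring was visual, on a scale where 100 means complete control and 0 means no effect, comparing treated with untreated plants around 10 days post-application. Compounds in surfactant-containing non-phytotoxic solvent were sprayed onto soil preemergence or onto one- to two-leaf seedlings (2–10 cm) postemergence.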

barnyardgrass [2] = experiment: Test A postemergence; assay type: in vivo, Echinochloa crus-galli
In short: as §1

crabgrass, large [3] = experiment: Test A postemergence; assay type: in vivo, Digitaria sanguinalis
In short: as §1

morningglory [4] = experiment: Test A postemergence; assay type: in vivo, Ipomoea spp.; conditions: Postemergence
In short: as §1

pigweed = experiment: Test A postemergence; assay type: in vivo, Amaranthus retroflexus; conditions: Postemergence
In short: as §1

corn = experiment: Test A postemergence; assay type: in vivo, Zea mays
In short: as §1

crabgrass, large [5] = experiment: Test C preemergence; assay type: in vivo, Digitaria sanguinalis; conditions: preemergence; for Plant response rating, Crabgrass, Large: 125 g ai/ha, scale 0 to 100, 0 = no effect, 100 = complete control
In short: (§2)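 Seeds were sown in a loam soil–sand blend and sprayed preemergence with compounds formulated in a non-phytotoxic solvent mixture containing surfactant. Postemergence plants, grown in peat/vermiculite medium to 2–18 cm (1- to 4-leaf stage), received the same formulation. After 13 to 15 days in a greenhouse, injury was rated visually against controls (0 = no effect, 100 = complete control).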

morningglory [6] = experiment: Test C preemergence; assay type: in vivo, Ipomoea coccinea; conditions: preemergence; for Plant response rating, Morningglory: 125 g ai/ha, scale 0 to 100, 0 = no effect, 100 = complete control
In short: as §2

nutsedge, yellow = experiment: Test C preemergence; assay type: in vivo, Cyperus esculentus; conditions: preemergence; for Plant response rating, Nutsedge, Yellow: 125 g ai/ha, scale 0 to 100, 0 = no effect, 100 = complete control
In short: as §2

barnyardgrass [7] = experiment: Test C preemergence; assay type: in vivo, Echinochloa crus-galli; conditions: preemergence; for Plant response rating, Barnyardgrass: 125 g ai/ha, scale 0 to 100, 0 = no effect, 100 = complete control
In short: as §2

velvetleaf = experiment: Test C preemergence; assay type: in vivo, Abutilon theophrasti; conditions: preemergence; for Plant response rating, Velvetleaf: 125 g ai/ha, scale 0 to 100, 0 = no effect, 100 = complete control
In short: as §2

ryegrass, Italian = experiment: Test C postemergence; assay type: in vivo, Lolium multiflorum; conditions: postemergence
In short: as §2

soybean = experiment: Test C postemergence; assay type: in vivo, Glycine max; conditions: postemergence; for Plant response rating, Soybean: 250 g ai/ha, scale 0 to 100 (0 no effect, 100 complete control); for Soybean plant response rating: 125 g ai/ha, scale 0 to 100, 0 no effect, 100 complete control
In short: as §2

oilseed rape = experiment: Test C postemergence; assay type: in vivo, Brassica napus; conditions: postemergence; for Oilseed Rape plant response rating: 62 g ai/ha, scale 0 to 100
In short: as §2

oat, wild = experiment: Test C postemergence; assay type: in vivo, Avena fatua; conditions: for Plant response rating (scale of 0 to 100 where 0 is no effect and 100 is complete control), Oat, Wild: Postemergence, 31 g ai/ha, visually evaluated after 13 to 15 days; for Oat, Wild plant response rating / Plant response rating, Oat, Wild: postemergence; for Oat, Wild plant response rating: 62 g ai/ha, scale 0 to 100
In short: as §2

kochia = experiment: Test C postemergence; assay type: in vivo, Kochia scoparia; conditions: for Plant response rating (scale of 0 to 100 where 0 is no effect and 100 is complete control), Kochia: Postemergence, 31 g ai/ha, visually evaluated after 13 to 15 days; for Kochia plant response rating / Plant response rating, Kochia: postemergence; for Kochia plant response rating: 62 g ai/ha, scale 0 to 100
In short: as §2

[8] = Postemergence, 500 g ai/ha, 0 to 100 scale (0 no effect, 100 complete control)
[9] = postemergence, 125 g ai/ha, about 10 days, visual rating on 0 to 100 scale (0 no effect, 100 complete control)
[10] = 125 g ai/ha, 0 to 100 scale, 0 no effect, 100 complete control
[11] = 500 g ai/ha, 0 to 100 scale (0 no effect, 100 complete control)
[12] = 31 g ai/ha, visual rating, scale 0 to 100 (0 no effect, 100 complete control), 13 to 15 days
[13] = 62 g ai/ha, scale 0 to 100 (0 no effect, 100 complete control), 13 to 15 days
[14] = 250 g ai/ha, scale 0 to 100, 0 is no effect, 100 is complete control
[15] = 250 g ai/ha, scale 0 to 100 (0 no effect, 100 complete control)
[16] = 125 g ai/ha, scale 0 to 100, 0 no effect, 100 complete control
[17] = Postemergence, 125 g ai/ha, 0 to 100 scale, 0 no effect, 100 complete control

SMILES: CCCc1cc(C(=O)NC2CC2)nn1Cc1cc(C(F)(F)F)nn1C [Compound 202]
- Barnyardgrass plant response rating (0 to 100 scale, 0 is no effect, 100 is complete control) (barnyardgrass [1]): 90
- Barnyardgrass plant response rating (barnyardgrass [1]): 100
- Barnyardgrass plant response rating (barnyardgrass [2]; [8]): 100
- Barnyardgrass plant response rating (barnyardgrass [2]; [9]): 90
- Crabgrass, Large plant response rating (crabgrass, large [3]; [8]): 100
- Crabgrass, Large plant response rating (crabgrass, large [3]; [9]): 90
- Morningglory plant response rating (morningglory [4]; [10]): 70
- Morningglory plant response rating (morningglory [4]; [11]): 90
- Pigweed plant response rating (pigweed; [10]): 100
- Pigweed plant response rating (pigweed; [11]): 100
- Corn plant response rating (corn; [8]): 90
- Corn plant response rating (corn; [9]): 80
- Crabgrass, Large plant response rating (crabgrass, large [5]; [12]): 100
- Crabgrass, Large plant response rating (crabgrass, large [5]; [13]): 100
- Plant response rating, Crabgrass, Large (crabgrass, large [5]; 13 to 15 days): 100
- Crabgrass, Large plant response rating (crabgrass, large [5]; [14]): 100
- Morningglory plant response rating (morningglory [6]; [12]): 90
- Morningglory plant response rating (morningglory [6]; [13]): 100
- Plant response rating, Morningglory (morningglory [6]; 13 to 15 days): 100
- Morningglory plant response rating (morningglory [6]; [14]): 100
- Nutsedge, Yellow plant response rating (nutsedge, yellow; [12]): 0
- Nutsedge, Yellow plant response rating (nutsedge, yellow; [13]): 5
- Plant response rating, Nutsedge, Yellow (nutsedge, yellow; 13 to 15 days): 30
- Nutsedge, Yellow plant response rating (nutsedge, yellow; [14]): 50
- Barnyardgrass plant response rating (barnyardgrass [7]; [12]): 95
- Barnyardgrass plant response rating (barnyardgrass [7]; [13]): 100
- Plant response rating, Barnyardgrass (barnyardgrass [7]; 13 to 15 days): 100
- Barnyardgrass plant response rating (barnyardgrass [7]; [14]): 100
- Velvetleaf plant response rating (velvetleaf; [12]): 60
- Velvetleaf plant response rating (velvetleaf; [13]): 100
- Plant response rating, Velvetleaf (velvetleaf; 13 to 15 days): 100
- Velvetleaf plant response rating (velvetleaf; [14]): 100
- Plant response rating, Ryegrass, Italian (ryegrass, Italian; [15]): 5
- Plant response rating, Ryegrass, Italian (ryegrass, Italian; [16]): 5
- Plant response rating, Soybean (soybean): 98
- Soybean plant response rating (soybean): 98
- Oilseed Rape plant response rating (oilseed rape): 30
- Plant response rating, Oilseed Rape (oilseed rape; [15]): 80
- Plant response rating, Oilseed Rape (oilseed rape; [16]): 65
- Plant response rating (scale of 0 to 100 where 0 is no effect and 100 is complete control), Oat, Wild (oat, wild): 5
- Oat, Wild plant response rating (oat, wild): 5
- Plant response rating, Oat, Wild (oat, wild; [15]): 30
- Plant response rating, Oat, Wild (oat, wild; [16]): 10
- Plant response rating (scale of 0 to 100 where 0 is no effect and 100 is complete control), Kochia (kochia): 85
- Kochia plant response rating (kochia): 90
- Plant response rating, Kochia (kochia; [15]): 90
- Plant response rating, Kochia (kochia; [16]): 90

SMILES: CCc1cc(C(=O)NCC(F)(F)F)nn1Cc1ccnc(SC(F)(F)F)c1 [Compound 214]
- Barnyardgrass plant response rating (0 to 100 scale, 0 is no effect, 100 is complete control) (barnyardgrass [1]): 100
- Barnyardgrass plant response rating (barnyardgrass [1]): 100
- Barnyardgrass plant response rating (barnyardgrass [2]; [17]): 100
- Barnyardgrass plant response rating (barnyardgrass [2]; [8]): 100
- Crabgrass, Large plant response rating (crabgrass, large [3]; [17]): 100
- Crabgrass, Large plant response rating (crabgrass, large [3]; [8]): 100
- Morningglory plant response rating (morningglory [4]; [10]): 80
- Morningglory plant response rating (morningglory [4]; [11]): 100
- Pigweed plant response rating (pigweed; [10]): 100
- Pigweed plant response rating (pigweed; [11]): 100
- Corn plant response rating (corn; [17]): 40
- Corn plant response rating (corn; [8]): 90
- Crabgrass, Large plant response rating (crabgrass, large [5]; [12]): 100
- Crabgrass, Large plant response rating (crabgrass, large [5]; [13]): 100
- Plant response rating, Crabgrass, Large (crabgrass, large [5]; 13 to 15 days): 100
- Crabgrass, Large plant response rating (crabgrass, large [5]; [14]): 100
- Morningglory plant response rating (morningglory [6]; [12]): 25
- Morningglory plant response rating (morningglory [6]; [13]): 98
- Plant response rating, Morningglory (morningglory [6]; 13 to 15 days): 100
- Morningglory plant response rating (morningglory [6]; [14]): 100
- Nutsedge, Yellow plant response rating (nutsedge, yellow; [12]): 25
- Nutsedge, Yellow plant response rating (nutsedge, yellow; [13]): 55
- Plant response rating, Nutsedge, Yellow (nutsedge, yellow; 13 to 15 days): 65
- Nutsedge, Yellow plant response rating (nutsedge, yellow; [14]): 65
- Barnyardgrass plant response rating (barnyardgrass [7]; [12]): 40
- Barnyardgrass plant response rating (barnyardgrass [7]; [13]): 95
- Plant response rating, Barnyardgrass (barnyardgrass [7]; 13 to 15 days): 100
- Barnyardgrass plant response rating (barnyardgrass [7]; [14]): 100
- Velvetleaf plant response rating (velvetleaf; [12]): 35
- Velvetleaf plant response rating (velvetleaf; [13]): 100
- Plant response rating, Velvetleaf (velvetleaf; 13 to 15 days): 100
- Velvetleaf plant response rating (velvetleaf; [14]): 100
- Plant response rating, Ryegrass, Italian (ryegrass, Italian; [15]): 15
- Plant response rating, Ryegrass, Italian (ryegrass, Italian; [16]): 5
- Plant response rating, Soybean (soybean): 95
- Soybean plant response rating (soybean): 90
- Oilseed Rape plant response rating (oilseed rape): 60
- Plant response rating, Oilseed Rape (oilseed rape; [15]): 70
- Plant response rating, Oilseed Rape (oilseed rape; [16]): 60
- Plant response rating (scale of 0 to 100 where 0 is no effect and 100 is complete control), Oat, Wild (oat, wild): 10
- Oat, Wild plant response rating (oat, wild): 15
- Plant response rating, Oat, Wild (oat, wild; [15]): 40
- Plant response rating, Oat, Wild (oat, wild; [16]): 15
- Plant response rating (scale of 0 to 100 where 0 is no effect and 100 is complete control), Kochia (kochia): 85
- Kochia plant response rating (kochia): 90
- Plant response rating, Kochia (kochia; [15]): 90
- Plant response rating, Kochia (kochia; [16]): 90

Source: patent US20150105252A1, “SUBSTITUTED PYRAZOLES AS HERBICIDES” (E I DU PONT DE NEMOURS AND COMPANY, priority 2013, published 2015)
